In the supplement of paper PMC13380429:

Legend:
[1] = tested on: A549-ACE2 infected with SARS-CoV-2; test: SARS-CoV-2 infection rate relative to DMSO; higher = more infection; settings: 24 h
[2] = tested on: A549-ACE2 infected with SARS-CoV-2; test: cell count relative to DMSO; higher = less toxic; settings: 24 h
U2OS [3] = test: relative viability EC50 (midpoint between 100% and the lowest measured viability); higher = less toxic; settings: 72 h
HepG2 [4] = test: as above; settings: 72 h
Calu-3 [5] = test: as above; settings: 72 h
Caco-2 [6] = test: as above; settings: 72 h
A549-ACE2 [7] = test: drug-induced phospholipidosis relative to tamoxifen; higher = more phospholipidosis
[8] = tested on: A549-ACE2 infected with SARS-CoV-2; test: morphology score (similarity to uninfected cells); higher = more like uninfected cells; settings: 24 h
U2OS [9] = test: cell viability relative to DMSO; higher = less toxic; settings: 72 h
HepG2 [10] = test: as above; settings: 72 h
Calu-3 [11] = test: as above; settings: 72 h
Vero E6 [12] = test: as above; settings: 72 h
Caco-2 [13] = test: as above; settings: 72 h
U2OS [14] = test: drug sensitivity score (DSS) for viability; higher = more toxic; extreme values may be limits of the assay; settings: 72 h
HepG2 [15] = test: as above; settings: 72 h
Calu-3 [16] = test: as above; settings: 72 h
Vero E6 [17] = test: as above; settings: 72 h
Caco-2 [18] = test: as above; settings: 72 h
Vero E6 [19] = test: relative viability EC50 (midpoint between 100% and the lowest measured viability); higher = less toxic; settings: 72 h
A549-ACE2 [20] = test: phospholipidosis EC50; higher = less potent phospholipidosis inducer; settings: 24 h

For `Nc1nc(O)c2[nH]nnc2n1` [azaguanine-8], the SARS-CoV-2 infection rate ([1]; 0.1 µM) was 106%, the SARS-CoV-2 infection rate ([1]; 0.3 µM) was 91% and the SARS-CoV-2 infection rate ([1]; 1 µM) was 96%. For the same compound, the SARS-CoV-2 infection rate ([1]; 3 µM) was 94%, the cell count ([2]; 0.1 µM) was 102% and the cell count ([2]; 0.3 µM) was 104%. For the same compound, the cell count ([2]; 1 µM) was 102%, the cell count ([2]; 3 µM) was 102% and the “relative viability EC50” value (U2OS [3]) was over 10 µM. The “relative viability EC50” value (HepG2 [4]) was 3.6 µM, the “relative viability EC50” value (Calu-3 [5]) was over 10 µM and the “relative viability EC50” value (Caco-2 [6]) was over 10 µM. It also gave a drug-induced phospholipidosis (A549-ACE2 [7]; 0.3 µM, 24 h) of 2.81%, a drug-induced phospholipidosis (A549-ACE2 [7]; 0.3 µM, 48 h) of 3.95% and a drug-induced phospholipidosis (A549-ACE2 [7]; 0.3 µM, 72 h) of 5.19%. For the same compound, the drug-induced phospholipidosis (A549-ACE2 [7]; 0.833333 µM, 24 h) was -0.65%, the drug-induced phospholipidosis (A549-ACE2 [7]; 0.833333 µM, 48 h) was -1.52% and the drug-induced phospholipidosis (A549-ACE2 [7]; 0.833333 µM, 72 h) was -2.08%. The drug-induced phospholipidosis (A549-ACE2 [7]; 3.33333 µM, 24 h) was -1.26%, the drug-induced phospholipidosis (A549-ACE2 [7]; 3.33333 µM, 48 h) was -4.45% and the drug-induced phospholipidosis (A549-ACE2 [7]; 3.33333 µM, 72 h) was -1.89%. The drug-induced phospholipidosis (A549-ACE2 [7]; 6.66667 µM, 24 h) was -0.07%, the drug-induced phospholipidosis (A549-ACE2 [7]; 6.66667 µM, 48 h) was -3.51% and the drug-induced phospholipidosis (A549-ACE2 [7]; 6.66667 µM, 72 h) was -4.08%. The drug-induced phospholipidosis (A549-ACE2 [7]; 10 µM, 24 h) was 3.53%, the drug-induced phospholipidosis (A549-ACE2 [7]; 10 µM, 48 h) was -4.77% and the drug-induced phospholipidosis (A549-ACE2 [7]; 10 µM, 72 h) was -4.93%. For the same compound, the drug-induced phospholipidosis (A549-ACE2 [7]; 30 µM, 24 h) was 16.6%, the morphology score ([8]; 0.1 µM) was 0.12 and the morphology score ([8]; 0.3 µM) was 0.27. It also gave a morphology score ([8]; 1 µM) of 0.08, a morphology score ([8]; 3 µM) of 0.33 and a cell viability (U2OS [9]; 1 nM) of 102%. For the same compound, the cell viability (U2OS [9]; 10 nM) was 95.4%, the cell viability (U2OS [9]; 100 nM) was 102% and the cell viability (U2OS [9]; 1000 nM) was 97.6%. The cell viability (U2OS [9]; 10000 nM) was 89.2%, the cell viability (HepG2 [10]; 1 nM) was 102% and the cell viability (HepG2 [10]; 10 nM) was 100%. For the same compound, the cell viability (HepG2 [10]; 100 nM) was 100%, the cell viability (HepG2 [10]; 1000 nM) was 106% and the cell viability (HepG2 [10]; 10000 nM) was 29.6%. It also gave a cell viability (Calu-3 [11]; 1 nM) of 94.4%, a cell viability (Calu-3 [11]; 10 nM) of 94% and a cell viability (Calu-3 [11]; 100 nM) of 89.5%. It also gave a cell viability (Calu-3 [11]; 1000 nM) of 89.5%, a cell viability (Calu-3 [11]; 10000 nM) of 81.2% and a cell viability (Vero E6 [12]; 1 nM) of 104%. The cell viability (Vero E6 [12]; 10 nM) was 103%, the cell viability (Vero E6 [12]; 100 nM) was 105% and the cell viability (Vero E6 [12]; 1000 nM) was 103%. For the same compound, the cell viability (Vero E6 [12]; 10000 nM) was 52%, the cell viability (Caco-2 [13]; 1 nM) was 104% and the cell viability (Caco-2 [13]; 10 nM) was 105%. For the same compound, the cell viability (Caco-2 [13]; 100 nM) was 93.5%, the cell viability (Caco-2 [13]; 1000 nM) was 91.9% and the cell viability (Caco-2 [13]; 10000 nM) was 91.1%. The drug sensitivity score (U2OS [14]) was 0.1, the drug sensitivity score (HepG2 [15]) was 3.4 and the drug sensitivity score (Calu-3 [16]) was 1.4. The drug sensitivity score (Vero E6 [17]) was 2.3 and the drug sensitivity score (Caco-2 [18]) was 0.

For `c1cncc(CN2CCC(n3ncc4c(N5CCOCC5)nc(-c5ccc6[nH]ccc6c5)nc43)CC2)c1` [WAY-600], the SARS-CoV-2 infection rate ([1]; 0.1 µM) was 103%, the SARS-CoV-2 infection rate ([1]; 0.3 µM) was 81% and the SARS-CoV-2 infection rate ([1]; 1 µM) was 56%. The SARS-CoV-2 infection rate ([1]; 3 µM) was 35%, the cell count ([2]; 0.1 µM) was 102% and the cell count ([2]; 0.3 µM) was 101%. The cell count ([2]; 1 µM) was 108%, the cell count ([2]; 3 µM) was 107% and the “relative viability EC50” value (U2OS [3]) was 2.07 µM. The “relative viability EC50” value (HepG2 [4]) was 1.44 µM, the “relative viability EC50” value (Calu-3 [5]) was 1.01 µM and the “relative viability EC50” value (Vero E6 [19]) was 1.59 µM. For the same compound, the “relative viability EC50” value (Caco-2 [6]) was 1.19 µM, the drug-induced phospholipidosis (A549-ACE2 [7]; 0.3 µM, 24 h) was 18.3% and the drug-induced phospholipidosis (A549-ACE2 [7]; 0.3 µM, 48 h) was 16.7%. It also gave a drug-induced phospholipidosis (A549-ACE2 [7]; 0.3 µM, 72 h) of 17.1%, a drug-induced phospholipidosis (A549-ACE2 [7]; 0.833333 µM, 24 h) of 55% and a drug-induced phospholipidosis (A549-ACE2 [7]; 0.833333 µM, 48 h) of 40.1%. The drug-induced phospholipidosis (A549-ACE2 [7]; 0.833333 µM, 72 h) was 29.6%, the drug-induced phospholipidosis (A549-ACE2 [7]; 3.33333 µM, 24 h) was 79.8% and the drug-induced phospholipidosis (A549-ACE2 [7]; 3.33333 µM, 48 h) was 86.2%. The drug-induced phospholipidosis (A549-ACE2 [7]; 6.66667 µM, 24 h) was 55%, the drug-induced phospholipidosis (A549-ACE2 [7]; 10 µM, 24 h) was 39.9% and the drug-induced phospholipidosis (A549-ACE2 [7]; 30 µM, 24 h) was 10.3%. For the same compound, the morphology score ([8]; 0.1 µM) was 0.01, the morphology score ([8]; 0.3 µM) was 0.46 and the morphology score ([8]; 1 µM) was 0.61. The morphology score ([8]; 3 µM) was 0.33, the “phospholipidosis EC50” value (A549-ACE2 [20]) was 0.65 µM and the cell viability (U2OS [9]; 1 nM) was 102%. The cell viability (U2OS [9]; 10 nM) was 98.1%, the cell viability (U2OS [9]; 100 nM) was 97.8% and the cell viability (U2OS [9]; 1000 nM) was 89.5%. For the same compound, the cell viability (U2OS [9]; 10000 nM) was 23%, the cell viability (HepG2 [10]; 1 nM) was 106% and the cell viability (HepG2 [10]; 10 nM) was 112%. For the same compound, the cell viability (HepG2 [10]; 100 nM) was 98.5%, the cell viability (HepG2 [10]; 1000 nM) was 72.2% and the cell viability (HepG2 [10]; 10000 nM) was 2.5%. It also gave a cell viability (Calu-3 [11]; 1 nM) of 101%, a cell viability (Calu-3 [11]; 10 nM) of 94.9% and a cell viability (Calu-3 [11]; 100 nM) of 95%. It also gave a cell viability (Calu-3 [11]; 1000 nM) of 64.8%, a cell viability (Calu-3 [11]; 10000 nM) of 27.3% and a cell viability (Vero E6 [12]; 1 nM) of 103%. It also gave a cell viability (Vero E6 [12]; 10 nM) of 104%, a cell viability (Vero E6 [12]; 100 nM) of 99.4% and a cell viability (Vero E6 [12]; 1000 nM) of 82.2%. The cell viability (Vero E6 [12]; 10000 nM) was 25.2%, the cell viability (Caco-2 [13]; 1 nM) was 96.4% and the cell viability (Caco-2 [13]; 10 nM) was 95.9%. For the same compound, the cell viability (Caco-2 [13]; 100 nM) was 102%, the cell viability (Caco-2 [13]; 1000 nM) was 70.3% and the cell viability (Caco-2 [13]; 10000 nM) was 24.7%. For the same compound, the drug sensitivity score (U2OS [14]) was 6, the drug sensitivity score (HepG2 [15]) was 9.5 and the drug sensitivity score (Calu-3 [16]) was 8.1. For the same compound, the drug sensitivity score (Vero E6 [17]) was 6.9 and the drug sensitivity score (Caco-2 [18]) was 8.2.
